# Assay results as given in ChEMBL document CHEMBL3217715, “Are pyridazines privileged structures?” (Medchemcomm, 2011).
# Biological target: D(2) dopamine receptor (Homo sapiens, UniProt P14416)
# Assay: Antagonist activity at dopamine D2 receptor (unknown origin)
# Sequence of D(2) dopamine receptor (P14416 whole entry): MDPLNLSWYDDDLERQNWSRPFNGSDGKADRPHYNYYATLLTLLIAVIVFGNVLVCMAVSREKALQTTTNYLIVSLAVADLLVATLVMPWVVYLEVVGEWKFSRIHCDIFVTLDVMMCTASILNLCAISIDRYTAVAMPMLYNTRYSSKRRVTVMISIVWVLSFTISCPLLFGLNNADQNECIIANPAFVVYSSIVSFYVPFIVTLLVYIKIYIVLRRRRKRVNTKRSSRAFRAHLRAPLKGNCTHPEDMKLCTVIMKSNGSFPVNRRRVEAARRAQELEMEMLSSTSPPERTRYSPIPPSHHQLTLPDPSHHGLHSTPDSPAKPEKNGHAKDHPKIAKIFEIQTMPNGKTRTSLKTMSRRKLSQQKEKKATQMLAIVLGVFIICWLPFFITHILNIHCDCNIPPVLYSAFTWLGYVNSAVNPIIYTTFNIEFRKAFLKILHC
structure (smiles),measurement,value
CCN1CCCC1CNc1nncc2ccc(OC)c(OC)c12 (stereo unspecified),Ki,3.9 nM
